Source: patent US12139520B2 (priority 2020, dated 2024)
Numbered stars: 1 amine (or outer) side, 2 acyl side, 3 side chain; on linkers, the order of the positions; unused ones are H or OH. Bridge positions count the residues as written; N and C are the ends. Square brackets hold non-standard residues; d marks the D form. Peptide text beside a SMILES is read from it. * marks the point of attachment. C20 diacid = O=C(O)CCCCCCCCCCCCCCCCCCC(=O)*; γGlu = O=C(O)[C@H](CCC(=O)[*:2])N[*:1]; Hyp = O=C(O)[C@@H]1C[C@@H](O)CN1

Experiments:
hAM1 receptor = hAM1 receptor (Homo sapiens, UniProt O60895+Q16602); assay: cAMP assay for in vitro receptor activation, hAM1-R; format: cell-based; details: cAMP assay, hAM1 receptor; read-out: hAM1R EC50
Experimental: General Protocols for cAMP Assays for Measuring In Vitro Receptor Activation
Cells stably overexpressing the hAM1 receptor were obtained from Ogeda (now Astellas Pharma), sub-cloned and a monoclonal cell-line with an appropriate assay-window was expanded, aliquoted and frozen. An aliquot was thawed and plated in DPBS with 0.05% casein and 0.5 mM IBMX as 8000 cells/well in a 384-well format.

hAMY3 receptor = target: T1, hAMY3 receptor (Homo sapiens, UniProt O60896+P30988); assay: cAMP assay for in vitro receptor activation, hAMY3-R; format: cell-based; details: cAMP assay, hAMY3 receptor; read-out: hAMY3R EC50
T1 sequence (P30988 25-474): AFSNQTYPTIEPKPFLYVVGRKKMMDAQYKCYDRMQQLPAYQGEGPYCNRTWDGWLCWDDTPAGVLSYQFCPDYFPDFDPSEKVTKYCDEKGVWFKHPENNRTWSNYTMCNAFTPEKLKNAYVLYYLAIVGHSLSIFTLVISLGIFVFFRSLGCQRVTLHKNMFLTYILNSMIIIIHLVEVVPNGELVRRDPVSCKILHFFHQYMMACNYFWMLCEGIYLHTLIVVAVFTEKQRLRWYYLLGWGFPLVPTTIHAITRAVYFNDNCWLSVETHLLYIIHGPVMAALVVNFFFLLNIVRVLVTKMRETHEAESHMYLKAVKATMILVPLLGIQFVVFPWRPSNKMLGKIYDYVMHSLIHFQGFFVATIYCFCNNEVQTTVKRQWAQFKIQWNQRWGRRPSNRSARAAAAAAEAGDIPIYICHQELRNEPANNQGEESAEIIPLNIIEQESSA
T1 sequence (O60896 24-148 partner): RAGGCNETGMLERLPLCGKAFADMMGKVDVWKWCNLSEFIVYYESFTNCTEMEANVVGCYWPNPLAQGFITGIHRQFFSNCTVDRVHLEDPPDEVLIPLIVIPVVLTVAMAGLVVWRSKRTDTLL
In short: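 Monoclonal cell line stably overexpressing human AMY3 receptor, 2000 cells/well in DPBS with 0.05% casein and 0.5 mM IBMX. Stimulated 30 min at room temperature with graded compound doses, human amylin as positive control. cAMP accumulation read by TR-FRET after one hour.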

hAM1 receptor, sequence (Q16602 23-461): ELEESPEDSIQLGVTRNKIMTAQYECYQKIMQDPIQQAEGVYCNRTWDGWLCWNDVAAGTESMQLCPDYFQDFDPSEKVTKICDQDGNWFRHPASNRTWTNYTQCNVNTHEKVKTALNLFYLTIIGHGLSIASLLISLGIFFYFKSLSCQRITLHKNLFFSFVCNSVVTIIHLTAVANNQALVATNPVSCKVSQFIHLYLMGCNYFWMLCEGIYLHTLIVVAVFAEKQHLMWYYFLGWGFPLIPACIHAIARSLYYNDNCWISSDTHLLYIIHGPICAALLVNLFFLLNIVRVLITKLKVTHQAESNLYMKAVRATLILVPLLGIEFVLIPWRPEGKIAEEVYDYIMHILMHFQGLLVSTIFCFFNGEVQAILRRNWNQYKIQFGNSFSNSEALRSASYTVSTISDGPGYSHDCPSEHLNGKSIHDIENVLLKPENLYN
hAM1 receptor, sequence (O60895 43-175 partner): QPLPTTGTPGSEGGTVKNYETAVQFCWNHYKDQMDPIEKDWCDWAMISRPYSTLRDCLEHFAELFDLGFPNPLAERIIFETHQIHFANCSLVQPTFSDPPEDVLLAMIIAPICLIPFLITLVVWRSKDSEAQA

| EC50 (hAM1 receptor) [nM] | EC50 (hAMY3 receptor) [nM] | Structure (SMILES) |
| --- | --- | --- |
| 116 | 0.013 | CC[C@H](C)[C@H](NC(=O)[C@H](CCC(N)=O)NC(=O)[C@H](Cc1c[nH]cn1)NC(=O)[C@H](C)NC(=O)[C@H](CC(C)C)NC(=O)[C@H](CCCNC(=N)N)NC(=O)[C@H](CCC(N)=O)NC(=O)[C@@H](NC(=O)[C@@H](NC(=O)[C@@H]1CSSC[C@H](NC(=O)[C@H](CCCCN)NC(=O)CC[C@H](NC(=O)CCCCCCCCCCCCCCCCCCC(=O)O)C(=O)O)C(=O)N[C@@H](CC(N)=O)C(=O)N[C@@H](Cc2ccccc2)C(=O)N[C@@H](C)C(=O)N[C@@H]([C@@H](C)O)C(=O)N1)[C@@H](C)O)C(C)C)C(=O)N[C@@H](Cc1ccc(O)cc1)C(=O)N[C@@H](CCC(N)=O)C(=O)N[C@@H](Cc1ccccc1)C(=O)N[C@H](C(=O)N[C@@H](CC(=O)O)C(=O)N[C@@H](CCCCN)C(=O)N[C@@H](CC(=O)O)C(=O)N[C@@H](CCCCN)C(=O)N[C@@H](CC(=O)O)C(=O)N[C@@H](CC(N)=O)C(=O)N[C@H](C(=O)N[C@@H](C)C(=O)N1CCC[C@H]1C(=O)N[C@@H](CCCNC(=N)N)C(=O)N[C@H](C(=O)N[C@@H](CCC(=O)O)C(=O)N[C@H](C(=O)NCC(=O)N[C@@H](CO)C(=O)N[C@@H](CC(N)=O)C(=O)NCC(=O)N1C[C@H](O)C[C@H]1C(N)=O)C(C)C)[C@@H](C)O)C(C)C)[C@@H](C)O [compound 67] ({C20 diacid-γGlu}-KCNFATCTVQRLAHQIYQFTDKDKDNVAPRTEVGSNG[Hyp]-NH2; disulfide 2-7) |
| > 5000 | 0.011 | CC[C@H](C)[C@H](NC(=O)[C@H](CCC(N)=O)NC(=O)[C@H](CCC(=O)O)NC(=O)[C@H](C)NC(=O)[C@H](CC(C)C)NC(=O)[C@H](CCCNC(=N)N)NC(=O)[C@H](CCC(N)=O)NC(=O)[C@@H](NC(=O)[C@@H](NC(=O)[C@@H]1CSSC[C@H](NC(=O)[C@H](CCCCN)NC(=O)CC[C@H](NC(=O)CCCCCCCCCCCCCCCCCCC(=O)O)C(=O)O)C(=O)N[C@@H](CC(N)=O)C(=O)N[C@@H]([C@@H](C)O)C(=O)N[C@@H](C)C(=O)N[C@@H]([C@@H](C)O)C(=O)N1)[C@@H](C)O)C(C)C)C(=O)N[C@@H](Cc1ccc(O)cc1)C(=O)N[C@@H](CCC(N)=O)C(=O)N[C@@H](Cc1ccccc1)C(=O)N[C@H](C(=O)N[C@@H](CC(=O)O)C(=O)N[C@@H](CCCCN)C(=O)N[C@@H](CC(=O)O)C(=O)N[C@@H](CCCCN)C(=O)N[C@@H](CC(=O)O)C(=O)N[C@@H](CC(N)=O)C(=O)N[C@H](C(=O)N[C@@H](C)C(=O)N1CCC[C@H]1C(=O)N1CCC[C@H]1C(=O)N[C@H](C(=O)N[C@@H](CC(N)=O)C(=O)N[C@H](C(=O)NCC(=O)N[C@@H](CO)C(=O)N[C@@H](CC(N)=O)C(=O)NCC(=O)N1C[C@H](O)C[C@H]1C(N)=O)C(C)C)[C@@H](C)O)C(C)C)[C@@H](C)O [compound 51] ({C20 diacid-γGlu}-KCNTATCTVQRLAEQIYQFTDKDKDNVAPPTNVGSNG[Hyp]-NH2; disulfide 2-7) |
| > 5000 | 0.017 | CC[C@H](C)[C@H](NC(=O)[C@H](CCC(N)=O)NC(=O)[C@H](CCC(=O)O)NC(=O)[C@H](C)NC(=O)[C@H](CC(C)C)NC(=O)[C@H](CCCNC(=N)N)NC(=O)[C@H](CCC(N)=O)NC(=O)[C@@H](NC(=O)[C@@H](NC(=O)[C@@H]1CSSC[C@H](NC(=O)[C@@H](N)CCCCN)C(=O)N[C@@H](CC(N)=O)C(=O)N[C@@H](C)C(=O)N[C@@H](C)C(=O)N[C@@H]([C@@H](C)O)C(=O)N1)[C@@H](C)O)C(C)C)C(=O)N[C@@H](Cc1ccc(O)cc1)C(=O)N[C@@H](CCC(N)=O)C(=O)N[C@@H](Cc1ccccc1)C(=O)N[C@H](C(=O)N[C@@H](CC(=O)O)C(=O)N[C@@H](CCCCN)C(=O)N[C@@H](CC(=O)O)C(=O)N[C@@H](CCCCN)C(=O)N[C@@H](CC(=O)O)C(=O)N[C@@H](CC(N)=O)C(=O)N[C@H](C(=O)N[C@@H](C)C(=O)N1CCC[C@H]1C(=O)N1CCC[C@H]1C(=O)N[C@H](C(=O)N[C@@H](CC(N)=O)C(=O)N[C@H](C(=O)NCC(=O)N[C@@H](CO)C(=O)N[C@@H](CC(N)=O)C(=O)NCC(=O)N1C[C@H](O)C[C@H]1C(N)=O)C(C)C)[C@@H](C)O)C(C)C)[C@@H](C)O [compound 101] (H-KCNAATCTVQRLAEQIYQFTDKDKDNVAPPTNVGSNG[Hyp]-NH2; disulfide 2-7; N-terminus assumed) |

The remaining lines, values behind:

| Structure (SMILES) | EC50 (hAM1 receptor) [nM] | EC50 (hAMY3 receptor) [nM] |
| --- | --- | --- |
| CC[C@H](C)[C@H](NC(=O)[C@H](CCC(N)=O)NC(=O)[C@H](Cc1c[nH]cn1)NC(=O)[C@H](C)NC(=O)[C@H](CC(C)C)NC(=O)[C@H](CCCNC(=N)N)NC(=O)[C@H](CCC(N)=O)NC(=O)[C@@H](NC(=O)[C@@H](NC(=O)[C@@H]1CSSC[C@H](NC(=O)[C@@H](N)CCCCN)C(=O)N[C@@H](CC(N)=O)C(=O)N[C@@H]([C@@H](C)O)C(=O)N[C@@H](C)C(=O)N[C@@H]([C@@H](C)O)C(=O)N1)[C@@H](C)O)C(C)C)C(=O)N[C@@H](Cc1ccc(O)cc1)C(=O)N[C@@H](CCC(N)=O)C(=O)N[C@@H](Cc1ccccc1)C(=O)N[C@H](C(=O)N[C@@H](CC(=O)O)C(=O)N[C@@H](CCCCN)C(=O)N[C@@H](CC(=O)O)C(=O)N[C@@H](CCCCN)C(=O)N[C@@H](CC(=O)O)C(=O)N[C@@H](CC(N)=O)C(=O)N[C@H](C(=O)N[C@@H](C)C(=O)N[C@@H](C)C(=O)N1CCC[C@H]1C(=O)N[C@H](C(=O)N[C@@H](CC(N)=O)C(=O)N[C@H](C(=O)NCC(=O)N[C@@H](CO)C(=O)N[C@@H](CC(N)=O)C(=O)NCC(=O)N1C[C@H](O)C[C@H]1C(N)=O)C(C)C)[C@@H](C)O)C(C)C)[C@@H](C)O [compound 53] (H-KCNTATCTVQRLAHQIYQFTDKDKDNVAAPTNVGSNG[Hyp]-NH2; disulfide 2-7; N-terminus assumed) | > 5000 | 0.011 |
| CC[C@H](C)[C@H](NC(=O)[C@H](C)NC(=O)CNC(=O)[C@H](Cc1ccccc1)NC(=O)[C@H](CC(N)=O)NC(=O)[C@H](CC(N)=O)NC(=O)[C@H](CO)NC(=O)[C@H](CO)NC(=O)[C@H](Cc1c[nH]cn1)NC(=O)[C@@H](NC(=O)[C@H](CC(C)C)NC(=O)[C@H](Cc1ccccc1)NC(=O)[C@H](CC(N)=O)NC(=O)[C@H](C)NC(=O)[C@H](CC(C)C)NC(=O)[C@H](CCCNC(=N)N)NC(=O)[C@H](CCC(N)=O)NC(=O)[C@@H](NC(=O)[C@H](C)NC(=O)[C@@H]1CSSC[C@H](NC(=O)[C@@H](N)CCCCN)C(=O)N[C@@H](CC(N)=O)C(=O)N[C@@H]([C@@H](C)O)C(=O)N[C@@H](C)C(=O)N[C@@H]([C@@H](C)O)C(=O)N1)[C@@H](C)O)C(C)C)C(=O)N[C@@H](CC(C)C)C(=O)N1CCC[C@H]1C(=O)N[C@@H](CCCNC(=N)N)C(=O)N[C@H](C(=O)N[C@@H](CCCCN)C(=O)N[C@H](C(=O)NCC(=O)N[C@@H](CO)C(=O)N[C@@H](CC(N)=O)C(=O)NCC(=O)N[C@@H](Cc1ccc(O)cc1)C(N)=O)C(C)C)[C@@H](C)O [compound 19] (H-KCNTATCATQRLANFLVHSSNNFGAILPRTKVGSNGY-NH2; disulfide 2-7) | > 5000 | 0.008 |
| CC[C@H](C)[C@H](NC(=O)[C@H](C)NC(=O)CNC(=O)[C@H](Cc1ccccc1)NC(=O)[C@H](CC(N)=O)NC(=O)[C@H](CC(N)=O)NC(=O)[C@H](CO)NC(=O)[C@H](CO)NC(=O)[C@H](Cc1c[nH]cn1)NC(=O)[C@@H](NC(=O)[C@H](CC(C)C)NC(=O)[C@H](Cc1ccccc1)NC(=O)[C@H](CC(N)=O)NC(=O)[C@H](C)NC(=O)[C@H](CC(C)C)NC(=O)[C@H](CCCNC(=N)N)NC(=O)[C@H](CCC(N)=O)NC(=O)[C@@H](NC(=O)[C@H](C)NC(=O)[C@@H]1CSSC[C@H](NC(=O)[C@@H](N)CCCCN)C(=O)N[C@@H](CC(N)=O)C(=O)N[C@@H]([C@@H](C)O)C(=O)N[C@@H](C)C(=O)N[C@@H]([C@@H](C)O)C(=O)N1)[C@@H](C)O)C(C)C)C(=O)N[C@@H](CC(C)C)C(=O)N1CCC[C@H]1C(=O)N[C@@H](CO)C(=O)N[C@H](C(=O)N[C@@H](CCCCN)C(=O)N[C@H](C(=O)NCC(=O)N[C@@H](CO)C(=O)N[C@@H](CC(N)=O)C(=O)NCC(=O)N[C@@H](Cc1ccc(O)cc1)C(N)=O)C(C)C)[C@@H](C)O [compound 59] (H-KCNTATCATQRLANFLVHSSNNFGAILPSTKVGSNGY-NH2; disulfide 2-7) | > 5000 | 0.012 |
